Our source for the IC50 and ED50 values is US4921887A, “Thiazole compounds and pharmaceutical composition comprising the same” (Fujisawa Pharmaceutical Company, Ltd., priority 1987, dated 1990).

Structures are written as SMILES. In brackets after ≈: the same amount, converted by molar mass.

In experiment [1] the test system is SRS-A synthesis or release from peritoneal exudate cells (5-lipoxygenase). The experiment in a line: Anti-SRS-A activity (5-lipoxygenase inhibitory activity). Format: cell-based, SD rats. The conditions noted are these: A23187 (1 μg/ml)-stimulated rat peritoneal exudate cells, indomethacin 10 μg/ml; SRS-A by contractility of isolated guinea pig ileum; read-out: Inhibitory Concentration IC50. The method, then:
Anti-SRS-A activity (5-lipoxygenase inhibitory activity)
Peritoneal exudate cells were collected from glycogen-injected SD rats and adjusted to 1×10^7 cells/ml with Tyrode's solution. One milliliter of the cell suspension was incubated with indomethacin (10 μg/ml) and each varied concentration of the test compound for 10 minutes and, then, further incubated with Ca^++ -ionophore (A23187, 1 μg/ml) for 10 minutes. The supernatant was collected by centrifugation and the SRS-A (slow-reacting substance of anaphylaxis) activity was determined in terms of contractility of the isolated guinea pig ileum in the presence of mepyramine, atropine and methysergide.
The results were expressed in terms of the 50% inhibitory concentration to SRS-A synthesis or release from peritoneal exudate cells.

Experiment [2] deals with anaphylactic asthma in guinea pigs. The experiment in a line: Antagonistic action on anaphylactic asthma in guinea pigs. The conditions noted are these: Cavia porcellus; oral, 30 minutes prior to egg-white albumin aerosol; survival not less than 2 hours after antigen spraying; read-out: Prophylactic Effect ED50. The class given is in vivo, guinea pigs (male Hartley-strain). The method, then:
Antagonistic action on anaphylactic asthma in guinea pigs
Male Hartley-strain guinea pigs weighing 305-400 g were used. These animals were sensitized by intravenous injection of 0.5 ml/animal of rabbit antiserum to egg-white albumin (PCA antibody titer 4,000). After 24 hours, the animals were housed individually in 5.3-liter plastic chambers. Using a commercial sprayer, a 5% egg-white albumin solution was sprayed in the form of an aerosol into each chamber at a rate of 0.16 ml/min for 2 minutes. Thirty minutes prior to the spraying of the egg-white albumin solution, the test compound was administered orally in varied concentrations. Each dosed group consisted of 5 animals. The prophylactic effect to anaphylaxis was expressed in terms of the ED50 value determined on the basis of the number of guinea pigs which had survived for not less than 2 hours after antigen spraying for each administration concentration of the test compound.

Turning to `O=C(Nc1nc(CN2CCC(OC(c3ccccc3)c3ccccc3)CC2)cs1)C1CC1` [Compound D, 2-Cyclopropylcarbonylamino-4-[4-(diphenylmethoxy)piperidinomethyl]thiazole], the IC50 in experiment [1] was 0.011 µg/mL (≈ 0.0246 µM).

For the molecule `C[C@@H](O)C(=O)Nc1nc(CN2CCC(OC(c3ccccc3)c3ccccc3)CC2)cs1` [Compound E, 2-(D-Lactoylamino)-4-[4-(diphenylmethoxy)piperidinomethyl]thiazole], the IC50 in experiment [1] amounted to 0.015 µg/mL (≈ 0.0332 µM). As to `CS(=O)(=O)Nc1nc(CN2CCC(OC(c3ccccc3)c3ccccc3)CC2)cs1` [Compound A, 2-Mesylamino-4-[4-(diphenylmethoxy)piperidinomethyl]thiazole], in experiment [2], the median effective dose (ED50) is 0.03 mg/kg. Regarding `CCCC(=O)Nc1nc(CN2CCC(OC(c3ccccc3)c3ccccc3)CC2)cs1` [Compound C, 2-Butyrylamino-4-[4-(diphenylmethoxy)piperidinomethyl]thiazole], in experiment [1], the IC50 came out at 0.023 µg/mL (≈ 0.0512 µM). Same read-out and setting: the same measure for `CCOC(=O)Nc1nc(CN2CCC(OC(c3ccccc3)c3ccccc3)CC2)cs1` [Compound F, 2-Ethoxycarbonylamino-4-[4-(diphenylmethoxy)piperidinomethyl]thiazole]: 0.014 µg/mL (≈ 0.031 µM). In the case of `CCC(=O)Nc1nc(CN2CCC(OC(c3ccccc3)c3ccccc3)CC2)cs1` [Compound B, 2-Propionylamino-4-[4-(diphenylmethoxy)piperidinomethyl]thiazole], in experiment [1], the IC50 was 0.023 µg/mL (≈ 0.0528 µM). Take `CNC(=O)Nc1nc(CN2CCC(OC(c3ccccc3)c3ccccc3)CC2)cs1` [Compound G, 2-(3-Methylureido)-4-[4-(diphenylmethoxy)piperidinomethyl]thiazole]: the IC50 in experiment [1] stood at 0.015 µg/mL (≈ 0.0344 µM).

As usually defined, the ED50 is the dose that gives a 50% effect, or the effect in half of the subjects.
